# Where two headings read alike, the source gives them in different places.
# Assays:
# NDM-1 strains [1] = type: cell-based, Enterobacteriaceae; conditions: Ex 2, MIC in mg/l
# Description: (§1) Optimization of the Detection Specificity by Introducing Specific Inhibitors Inhibition of Class B Strains (NDM, VIM, IMP) by Adding EDTA
# (§2) Identical to that used to determine the temocillin MICs by agar dilution (example 1).
# (§3) For each temocillin concentration, the following concentrations of active EDTA will be tested in the form of disodium EDTA: 0, 1.77, 2.12, 2.47 and 2.83 mmol/l.
# (§4) Method: identical to the method used in example 1.
# VIM strains [2] = type: cell-based, Enterobacteriaceae; conditions: Ex 2, MIC in mg/l
# Description: as §1, §2, §3, §4
# [3] = test system: KPC, AmpC and MBL strains; conditions: disk comprising 30 μg of temocillin; Rosco; cited from earlier work
# OXA-48 strains = experiment: Temocillin MIC, agar dilution (Example 1); type: cell-based, Enterobacteriaceae
# Protocol: (§5) Determination of the MICs with Respect to Temocillin for a Panel of CPE Strains (Using the Agar Dilution Method)
# (§6) Reaction medium: the base is a chromLD™ CPS medium (bioMérieux, ref. 43821-43829), comprising a chromogenic substrate for beta-glucuronidase, a chromogenic substrate for beta-glucosidase, a chromogenic substrate for beta-galactosidase and a substrate for deaminase. Temocillin is added to this base medium at the concentrations indicated hereinafter.
# (§7) Temocillin range tested: 50-150-200-300 mg/l (disodium temocillin, Eumedica SA, Manage, Belgium).
# (§8) The media are inoculated by depositing a spot: 1 μl of a microbial suspension in physiological saline at 0.5 McF, diluted to 1/10.
# (§9) Incubation for 24 h at 37° C.
# (§10) Reading after incubation for 24 hours. The medium with the smallest temocillin concentration on which a negative growth spot is obtained will be retained as the MIC. The spots having only 3 colonies or less or a total absence of growth were considered to be negative.
# [4] = test system: strains with impermeability-mediated resistance to carbapenems (IR); experiment: Temocillin MIC, agar dilution (Example 1); type: cell-based, Enterobacteriaceae; conditions: Ex 1; temocillin alone; MIC in mg/l
# Protocol: as §5, §6, §7, §8, §9, §10
# NDM-1 strains [5] = experiment: Temocillin MIC, agar dilution (Example 1); type: cell-based, Enterobacteriaceae; conditions: Ex 1; temocillin alone; MIC in mg/l
# Protocol: as §5, §6, §7, §8, §9, §10
# VIM strains [6] = experiment: Temocillin MIC, agar dilution (Example 1); type: cell-based, Enterobacteriaceae; conditions: Ex 1; temocillin alone; MIC in mg/l
# Protocol: as §5, §6, §7, §8, §9, §10
# [7] = Ex 1, temocillin alone, MIC in mg/l
compound,measurement,setting,value
CO[C@@]1(NC(=O)C(C(=O)O)c2ccsc2)C(=O)N2[C@@H](C(=O)O)C(C)(C)S[C@@H]21 (stereo partly shown) [temocillin],No. of NDM-1 strains with MIC 200,NDM-1 strains [1]; 2.12 mmol/l of active EDTA,0
same,No. of NDM-1 strains with MIC 300,NDM-1 strains [1]; 2.12 mmol/l of active EDTA,0
same,No. of NDM-1 strains with MIC >300,NDM-1 strains [1]; 2.12 mmol/l of active EDTA,0
same,No. of NDM-1 strains with MIC ≦50,NDM-1 strains [1]; 2.12 mmol/l of active EDTA,26
same,No. of NDM-1 strains with MIC 150,NDM-1 strains [1]; 2.47 mmol/l of active EDTA,1
same,No. of NDM-1 strains with MIC 200,NDM-1 strains [1]; 2.47 mmol/l of active EDTA,0
same,No. of NDM-1 strains with MIC 300,NDM-1 strains [1]; 2.47 mmol/l of active EDTA,0
same,No. of NDM-1 strains with MIC >300,NDM-1 strains [1]; 2.47 mmol/l of active EDTA,0
same,No. of NDM-1 strains with MIC ≦50,NDM-1 strains [1]; 2.47 mmol/l of active EDTA,26
same,No. of NDM-1 strains with MIC 150,NDM-1 strains [1]; 2.83 mmol/l of active EDTA,0
same,No. of NDM-1 strains with MIC 200,NDM-1 strains [1]; 2.83 mmol/l of active EDTA,0
same,No. of NDM-1 strains with MIC 300,NDM-1 strains [1]; 2.83 mmol/l of active EDTA,0
same,No. of NDM-1 strains with MIC >300,NDM-1 strains [1]; 2.83 mmol/l of active EDTA,0
same,No. of NDM-1 strains with MIC ≦50,NDM-1 strains [1]; 2.83 mmol/l of active EDTA,27
same,No. of VIM strains with MIC 150,VIM strains [2]; 0 mmol/l of EDTA,6
same,No. of VIM strains with MIC 200,VIM strains [2]; 0 mmol/l of EDTA,1
same,No. of VIM strains with MIC 300,VIM strains [2]; 0 mmol/l of EDTA,0
same,No. of VIM strains with MIC >300,VIM strains [2]; 0 mmol/l of EDTA,1
same,No. of VIM strains with MIC ≦50,VIM strains [2]; 0 mmol/l of EDTA,9
same,No. of VIM strains with MIC 150,VIM strains [2]; 1.77 mmol/l of active EDTA,0
same,No. of VIM strains with MIC 200,VIM strains [2]; 1.77 mmol/l of active EDTA,0
same,No. of VIM strains with MIC 300,VIM strains [2]; 1.77 mmol/l of active EDTA,0
same,No. of VIM strains with MIC >300,VIM strains [2]; 1.77 mmol/l of active EDTA,0
same,No. of VIM strains with MIC ≦50,VIM strains [2]; 1.77 mmol/l of active EDTA,17
same,No. of VIM strains with MIC 150,VIM strains [2]; 2.12 mmol/l of active EDTA,0
same,No. of VIM strains with MIC 200,VIM strains [2]; 2.12 mmol/l of active EDTA,0
same,No. of VIM strains with MIC 300,VIM strains [2]; 2.12 mmol/l of active EDTA,0
same,No. of VIM strains with MIC >300,VIM strains [2]; 2.12 mmol/l of active EDTA,0
same,No. of VIM strains with MIC ≦50,VIM strains [2]; 2.12 mmol/l of active EDTA,17
same,No. of VIM strains with MIC 150,VIM strains [2]; 2.47 mmol/l of active EDTA,0
same,No. of VIM strains with MIC 200,VIM strains [2]; 2.47 mmol/l of active EDTA,0
same,No. of VIM strains with MIC 300,VIM strains [2]; 2.47 mmol/l of active EDTA,0
same,No. of VIM strains with MIC >300,VIM strains [2]; 2.47 mmol/l of active EDTA,0
same,No. of VIM strains with MIC ≦50,VIM strains [2]; 2.47 mmol/l of active EDTA,17
same,No. of VIM strains with MIC 150,VIM strains [2]; 2.83 mmol/l of active EDTA,0
same,No. of VIM strains with MIC 200,VIM strains [2]; 2.83 mmol/l of active EDTA,0
same,No. of VIM strains with MIC 300,VIM strains [2]; 2.83 mmol/l of active EDTA,0
same,No. of VIM strains with MIC >300,VIM strains [2]; 2.83 mmol/l of active EDTA,0
same,No. of VIM strains with MIC ≦50,VIM strains [2]; 2.83 mmol/l of active EDTA,17
same,inhibition of strains by temocillin disk,[3],"does not inhibit all KPC, AmpC and MBL strains"
same,MIC,OXA-48 strains,> 300 µg/mL
same,No. of OXA-48 strains with MIC 150,OXA-48 strains; [7],0
same,No. of OXA-48 strains with MIC 200,OXA-48 strains; [7],0
same,No. of OXA-48 strains with MIC 300,OXA-48 strains; [7],0
same,No. of OXA-48 strains with MIC >300,OXA-48 strains; [7],15
same,No. of OXA-48 strains with MIC ≦50,OXA-48 strains; [7],1
same,No. of IR strains with MIC 150,[4],2
same,No. of IR strains with MIC 200,[4],0
same,No. of IR strains with MIC 300,[4],0
same,No. of IR strains with MIC >300,[4],0
same,No. of IR strains with MIC ≦50,[4],8
same,No. of NDM-1 strains with MIC 150,NDM-1 strains [5],1
same,No. of NDM-1 strains with MIC 200,NDM-1 strains [5],0
same,No. of NDM-1 strains with MIC 300,NDM-1 strains [5],0
same,No. of NDM-1 strains with MIC >300,NDM-1 strains [5],0
same,No. of NDM-1 strains with MIC ≦50,NDM-1 strains [5],25
same,No. of VIM strains with MIC 150,VIM strains [6],5
same,No. of VIM strains with MIC 200,VIM strains [6],1
same,No. of VIM strains with MIC 300,VIM strains [6],0
same,No. of VIM strains with MIC >300,VIM strains [6],1
same,No. of VIM strains with MIC ≦50,VIM strains [6],9
